Experimental data reported in ChEMBL document CHEMBL5727779, “Compounds for inhibiting AGC kinase and pharmaceutical compositions comprising the same” (2020).

What was measured:
[1] = molecular target: Rho-associated protein kinase 1 (Homo sapiens, UniProt Q13464); test: (§1) ELISA Assay: ROCK Substrate Coated Plate (Part No 241601): One strip well 96-well plate pre-coated with recombinant MYPT1.Buffer: 25 mM Tris, pH 7.5, 10 mM MgCl2, 5 mM Glycerol-2-Phosphate, 0.1 mM Na3VO4; 1% DMSO; 2.5 mM DTT; (Enzyme: ROCK active-II) (Cell Biolabs, Catalog #STA-406, Part No. 241505) 0.1 ng/μl.ATP Solution (Part No. 241604): 100 mM ATP. Final concentration of ATP in reaction mixture: 250 μM.Anti-phospho-MYPT1 (Thr696) (Part No. 241603).Secondary Antibody, HRP Conjugate (Part No. 231003).Biotinylated substrate, diluted to 0.25 μM with buffer described above (without ATP).Steps:1. Purified kinase or cell lysate sample can be used directly in the kinase assay or further diluted with 1× Kinase Buffer. Each sample should be assayed in duplicate.2. Add 90 μL of the diluted active ROCK-II positive control or unknown ROCK samples to the wells of the substrate plate.3. Initiate the kinase reaction by adding 10 μL of the 10× Kinase Reaction Buffer containing DTT and ATP. Mix well.4. Cover with a plate cover and incubate the wells at 30° C. for 30-60 minutes with gentle agitation.5. Stop kinase reaction by flicking out the content or by adding 50 μL of 0.5M EDTA, pH 8.0, to each well.6. Remove the plate cover and empty wells. Wash microwell strips 3 times with 250 μL 1× Wash Buffer per well with thorough aspiration between each wash. After the last wash, empty wells and tap microwell strips on absorbent pad or paper towel to remove excess 1× Wash Buffer.7. Add 100 μL of the diluted anti-phospho-MYPT1 (Thr696) antibody to each well.8. Cover with the plate cover and incubate at room temperature for 1 hour on an orbital shaker.9. Remove the plate cover and empty wells. Wash the strip wells 3 times according to step 6 above.10. Add 100 μL of the diluted HRP-conjugated secondary antibody to each well.11. Cover with the plate cover and incubate at room temperature for 1 hour on an orbital shaker.12. Remove the plate cover and empty wells. Wash microwell strips 3 times according to step 6 above. Proceed immediately to the next step.13. Warm Substrate Solution to room temperature. Add 100 μL of Substrate Solution to each well, including the blank wells. Incubate at room temperature for 5-20 minutes on an orbital shaker.14. Stop the enzyme reaction by adding 100 μL of Stop Solution into each well, including the blank wells. Results should be read immediately (color will fade over time).15. Read absorbance of each microwell on a spectrophotometer using 450 nm as the primary wave length.
Rho-associated protein kinase 1, sequence (Q13464 whole entry): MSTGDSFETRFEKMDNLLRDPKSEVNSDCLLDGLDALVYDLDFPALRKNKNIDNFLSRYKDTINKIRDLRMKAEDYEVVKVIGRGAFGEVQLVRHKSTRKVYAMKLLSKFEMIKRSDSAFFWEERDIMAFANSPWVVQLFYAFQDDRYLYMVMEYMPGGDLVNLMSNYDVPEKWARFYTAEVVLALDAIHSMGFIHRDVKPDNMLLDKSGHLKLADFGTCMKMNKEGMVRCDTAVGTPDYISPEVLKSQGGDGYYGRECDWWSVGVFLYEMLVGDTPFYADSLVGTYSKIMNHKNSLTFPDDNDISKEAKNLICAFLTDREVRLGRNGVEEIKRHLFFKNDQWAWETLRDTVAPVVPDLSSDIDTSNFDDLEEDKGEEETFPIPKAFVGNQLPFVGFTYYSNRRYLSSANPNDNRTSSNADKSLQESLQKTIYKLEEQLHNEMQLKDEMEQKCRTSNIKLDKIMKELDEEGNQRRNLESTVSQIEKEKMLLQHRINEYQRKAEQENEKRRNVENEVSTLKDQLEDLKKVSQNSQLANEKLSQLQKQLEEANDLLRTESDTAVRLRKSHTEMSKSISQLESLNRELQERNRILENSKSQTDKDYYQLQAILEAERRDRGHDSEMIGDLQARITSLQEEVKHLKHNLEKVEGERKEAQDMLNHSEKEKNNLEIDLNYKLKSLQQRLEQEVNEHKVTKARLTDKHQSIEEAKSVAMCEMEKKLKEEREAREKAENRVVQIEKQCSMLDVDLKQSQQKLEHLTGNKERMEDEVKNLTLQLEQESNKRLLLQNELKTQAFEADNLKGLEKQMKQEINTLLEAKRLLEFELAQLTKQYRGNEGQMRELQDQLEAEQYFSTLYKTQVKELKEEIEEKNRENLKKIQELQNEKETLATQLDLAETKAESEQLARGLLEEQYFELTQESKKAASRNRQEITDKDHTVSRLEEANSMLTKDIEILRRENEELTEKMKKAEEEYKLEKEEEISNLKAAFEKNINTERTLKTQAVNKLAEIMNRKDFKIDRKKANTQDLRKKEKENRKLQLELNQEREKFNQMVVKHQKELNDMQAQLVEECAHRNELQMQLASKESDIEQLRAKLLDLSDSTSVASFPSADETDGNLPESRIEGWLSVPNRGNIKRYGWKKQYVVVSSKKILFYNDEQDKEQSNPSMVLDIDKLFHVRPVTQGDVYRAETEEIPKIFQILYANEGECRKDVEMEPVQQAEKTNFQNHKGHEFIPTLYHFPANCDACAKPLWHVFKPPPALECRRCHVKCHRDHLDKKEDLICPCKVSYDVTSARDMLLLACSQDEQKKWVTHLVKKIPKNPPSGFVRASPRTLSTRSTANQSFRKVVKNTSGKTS

[2] = molecular target: Rho-associated protein kinase 2 (Homo sapiens, UniProt O75116); test: as §1
Rho-associated protein kinase 2, sequence (O75116 whole entry): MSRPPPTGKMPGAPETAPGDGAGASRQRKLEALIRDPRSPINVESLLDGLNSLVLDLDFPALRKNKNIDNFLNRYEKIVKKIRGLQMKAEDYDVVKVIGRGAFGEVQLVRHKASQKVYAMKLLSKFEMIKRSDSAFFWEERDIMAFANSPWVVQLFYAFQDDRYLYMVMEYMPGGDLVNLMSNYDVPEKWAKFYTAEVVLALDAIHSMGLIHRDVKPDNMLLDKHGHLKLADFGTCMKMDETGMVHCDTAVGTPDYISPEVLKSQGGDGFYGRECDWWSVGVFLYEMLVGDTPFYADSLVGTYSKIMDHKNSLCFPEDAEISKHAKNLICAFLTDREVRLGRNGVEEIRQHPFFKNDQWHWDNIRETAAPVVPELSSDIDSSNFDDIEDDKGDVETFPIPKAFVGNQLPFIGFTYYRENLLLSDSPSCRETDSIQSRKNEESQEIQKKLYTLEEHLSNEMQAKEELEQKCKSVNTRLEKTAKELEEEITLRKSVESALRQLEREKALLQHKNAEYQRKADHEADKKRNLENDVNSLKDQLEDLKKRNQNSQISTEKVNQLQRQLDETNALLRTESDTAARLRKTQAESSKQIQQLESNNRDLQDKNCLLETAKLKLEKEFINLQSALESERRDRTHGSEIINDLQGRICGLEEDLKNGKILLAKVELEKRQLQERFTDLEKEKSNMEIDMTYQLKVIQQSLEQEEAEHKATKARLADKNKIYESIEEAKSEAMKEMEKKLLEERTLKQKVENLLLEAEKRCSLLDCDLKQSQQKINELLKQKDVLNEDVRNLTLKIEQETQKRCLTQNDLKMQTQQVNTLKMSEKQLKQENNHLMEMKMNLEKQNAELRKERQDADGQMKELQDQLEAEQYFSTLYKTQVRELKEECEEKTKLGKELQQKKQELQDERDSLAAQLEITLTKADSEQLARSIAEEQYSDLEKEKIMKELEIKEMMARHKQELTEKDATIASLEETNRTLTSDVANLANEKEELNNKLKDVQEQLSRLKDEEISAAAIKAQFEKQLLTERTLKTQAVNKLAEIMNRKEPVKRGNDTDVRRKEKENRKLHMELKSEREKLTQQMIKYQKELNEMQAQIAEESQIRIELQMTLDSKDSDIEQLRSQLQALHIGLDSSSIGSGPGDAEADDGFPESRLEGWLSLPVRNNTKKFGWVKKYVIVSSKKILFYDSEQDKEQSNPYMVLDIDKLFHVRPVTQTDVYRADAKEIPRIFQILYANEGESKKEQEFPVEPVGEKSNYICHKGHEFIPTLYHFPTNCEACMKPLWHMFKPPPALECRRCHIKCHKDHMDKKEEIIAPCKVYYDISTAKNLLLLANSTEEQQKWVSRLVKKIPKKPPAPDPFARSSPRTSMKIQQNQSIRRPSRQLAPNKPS

IC50 [1] | IC50 [2] | Structure (SMILES)
> 1 µM |  | NCCN(Cc1ccc(F)cc1)C(=O)Nc1cccc2cnccc12
 | > 1 µM | CN(C)CCN(Cc1ccccc1)C(=O)Nc1ccc2cnccc2c1
 | > 1 µM | COC(=O)c1ccc(CN(CCO)C(=O)Nc2ccc3cnccc3c2)cc1
 | > 1 µM | CN(C)CCN(Cc1ccc(Oc2ccc(C#N)cc2)cc1)C(=O)Nc1ccc2cnccc2c1
